Reference: the supplement of paper PMC10307832

Key:
Assay in all cases: relative viability (nuclei count vs DMSO), 5 days (fraction); higher = more cells survive
Decitabine + Alpelisib = compound: Nc1ncn([C@H]2C[C@H](O)[C@@H](CO)O2)c(=O)n1 [Decitabine] + Cc1nc(NC(=O)N2CCC[C@H]2C(N)=O)sc1-c1ccnc(C(C)(C)C(F)(F)F)c1 [Alpelisib] (partner 2 µM)
In short: (§1)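 Each reported value is a median over duplicate plates. It expresses relative viability: treated-well nuclei count divided by vehicle-well nuclei count. Lung cancer cell lines in 1536-well plates were dosed by pin tool a day after seeding, alone with one drug or with a fixed anchor-drug dose plus five library-drug doses (not always all listed) in √10 steps, and nuclei were counted after 5 days.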

Cediranib + Navitoclax = compound: COc1cc2c(Oc3ccc4[nH]c(C)cc4c3F)ncnc2cc1OCCCN1CCCC1 [Cediranib] + CC1(C)CCC(c2ccc(Cl)cc2)=C(CN2CCN(c3ccc(C(=O)NS(=O)(=O)c4ccc(N[C@H](CCN5CCOCC5)CSc5ccccc5)c(S(=O)(=O)C(F)(F)F)c4)cc3)CC2)C1 [Navitoclax] (partner 0.5 µM)
In short: as §1

Cediranib + OSI-027 = compound: COc1cc2c(Oc3ccc4[nH]c(C)cc4c3F)ncnc2cc1OCCCN1CCCC1 [Cediranib] + COc1cccc2cc(-c3nc([C@H]4CC[C@H](C(=O)O)CC4)n4ncnc(N)c34)[nH]c12 [OSI-027] (partner 0.5 µM)
In short: as §1

Decitabine + Pemetrexed = compound: Nc1ncn([C@H]2C[C@H](O)[C@@H](CO)O2)c(=O)n1 [Decitabine] + Nc1nc2[nH]cc(CCc3ccc(C(=O)N[C@@H](CCC(=O)O)C(=O)O)cc3)c2c(=O)[nH]1 [Pemetrexed] (partner 0.2 µM)
In short: as §1

Row | Cell Line | relative viability (Decitabine + Alpelisib; first compound 0.04 µM) | relative viability (Decitabine + Alpelisib; first compound 0.1265 µM) | relative viability (Decitabine + Alpelisib; first compound 0.4 µM) | relative viability (Decitabine + Alpelisib; first compound 1.265 µM) | relative viability (Decitabine + Alpelisib; first compound 4 µM) | relative viability (Cediranib + Navitoclax; first compound 0.04 µM) | relative viability (Cediranib + Navitoclax; first compound 0.1265 µM) | relative viability (Cediranib + Navitoclax; first compound 0.4 µM) | relative viability (Cediranib + Navitoclax; first compound 1.265 µM) | relative viability (Cediranib + Navitoclax; first compound 4 µM) | relative viability (Cediranib + OSI-027; first compound 0.04 µM) | relative viability (Cediranib + OSI-027; first compound 0.1265 µM) | relative viability (Cediranib + OSI-027; first compound 0.4 µM) | relative viability (Cediranib + OSI-027; first compound 1.265 µM) | relative viability (Cediranib + OSI-027; first compound 4 µM) | relative viability (Decitabine + Pemetrexed; first compound 0.04 µM) | relative viability (Decitabine + Pemetrexed; first compound 0.1265 µM) | relative viability (Decitabine + Pemetrexed; first compound 0.4 µM) | relative viability (Decitabine + Pemetrexed; first compound 1.265 µM) | relative viability (Decitabine + Pemetrexed; first compound 4 µM)
1 | NCI-H2126 | 0.673 | 0.659 | 0.521 | 0.521 | 0.424 | 0.8 | 0.934 | 0.781 | 0.811 | 0.914 | 0.649 | 0.577 | 0.668 | 0.597 | 0.537 | 0.68 | 0.648 | 0.391 | 0.453 | 0.341
2 | NCI-H2170 | 0.558 | 0.674 | 0.616 | 0.43 | 0.315 | 0.691 | 0.671 | 0.567 | 0.61 | 0.713 | 0.619 | 0.529 | 0.691 | 0.611 | 0.786 | 0.276 | 0.221 | 0.227 | 0.217 | 0.21
3 | NCI-H2228 | 0.479 | 0.41 | 0.453 | 0.298 | 0.201 | 0.791 | 0.968 | 0.883 | 1.22 | 1.1 | 0.552 | 0.767 | 0.496 | 0.335 | 0.68 | 0.232 | 0.208 | 0.179 | 0.166 | 0.163
4 | NCI-H2347 | 0.898 | 0.848 | 0.675 | 0.597 | 0.665 | 0.886 | 0.754 | 0.748 | 0.831 | 0.891 | 0.376 | 0.448 | 0.371 | 0.407 | 0.425 | 0.401 | 0.396 | 0.382 | 0.366 | 0.386
5 | NCI-H2405 | 0.737 | 0.753 | 0.698 | 0.494 | 0.373 | 0.766 | 1.01 | 0.79 | 1.11 | 0.838 | 0.648 | 0.606 | 0.617 | 0.52 | 0.622 | 0.851 | 0.998 | 0.787 | 0.632 | 0.524
6 | NCI-H3122 | 0.666 | 0.774 | 0.732 | 0.709 | 0.528 | 1.05 | 1.03 | 1.05 | 0.998 | 1.02 | 1.09 |  | 0.897 | 0.888 | 0.975 | 0.182 | 0.179 | 0.121 | 0.159 | 0.185
7 | PC-3 [JPC-3] |  | 0.773 | 0.581 | 0.493 | 0.479 | 0.715 | 0.705 | 0.735 | 0.849 | 0.801 | 0.777 | 0.824 | 0.73 | 0.688 | 0.627 |  | 0.845 | 0.439 | 0.528 | 0.586
8 | PC-14 | 0.623 | 0.723 | 0.411 | 0.196 | 0.18 | 0.989 | 1.03 | 1.02 | 0.905 | 1.24 | 0.993 | 0.894 | 0.735 | 0.61 | 0.724 | 0.123 | 0.0812 | 0.0659 | 0.0902 | 0.0856
9 | RERF-LC-KJ | 0.87 | 0.914 | 0.702 | 0.643 | 0.569 | 0.974 | 1.29 | 0.756 | 0.926 | 0.734 | 0.572 | 0.511 | 0.547 | 0.492 | 0.523 | 0.441 | 0.403 | 0.215 | 0.401 | 0.369
10 | SK-LU-1 | 0.62 | 0.637 | 0.485 | 0.5 | 0.284 | 1.1 | 0.999 | 0.859 | 0.654 | 1.04 | 0.343 | 0.39 | 0.338 | 0.257 | 0.33 | 0.826 | 0.754 | 0.406 | 0.513 | 0.49
11 | SK-MES-1 | 0.733 | 0.738 | 0.482 | 0.32 | 0.261 | 1.23 | 1.36 | 1.13 | 1.21 | 1.2 | 0.666 | 0.633 | 0.608 | 0.542 | 0.788 | 0.828 | 0.682 | 0.458 | 0.343 | 0.338
12 | SW 1573 | 0.7 | 0.912 | 0.61 | 0.274 | 0.298 | 0.925 | 1.06 | 0.872 | 1.01 | 1.05 | 0.682 | 0.644 | 0.604 | 0.427 | 0.662 | 0.812 | 0.844 | 0.87 | 0.494 | 0.323
